This is an account of results in patent US20240391912A1, “MORPHIC FORMS OF CFT7455 AND METHODS OF MANUFACTURE THEREOF” (C4 THERAPEUTICS, INC., priority 2022, published 2024).

Each structure is given as a SMILES string. Values after ≈ are worked out from the molar mass of the structure shown.

The test system of data set [1] is relapsed/refractory (r/r) MCL. Particulars: r/r subjects with MCL following bortezomib; cited from earlier work.
A short description of data set [2]: Solubility of Compound 5 Form VI and Form VIII at 25° C., equilibration for 24 hours (HPLC; XRPD of residual solids). It is filed as physicochemical. As for the experimental part:
11 mg (for 20 mg/mL target concentration) or 22 mg (for 50-60 mg/mL target concentration) of Compound 5 Form VI and Form VIII (equivalent to 10 mg or 20 mg of anhydrate free base) was weighed into a 4 mL glass vial, respectively. Up to 0.5 mL of potential eluent medium was added. The obtained suspensions/solutions were stirred at 25° C. at 400 rpm for 24 hours and then centrifuged at 25° C. at 14,000 rpm for 5 minutes. The residual solids were characterized by XRPD to determine the physical form. The supernatants (0.1 mL) were evaporated at about 22-25° C./30-60% RH.

Data set [3] can be described thus: Bulk stability of Compound 5 Form VI and Form VIII at 25° C./60% RH, open container, 1 week (XRPD, HPLC, color). It is filed as physicochemical. As for the experimental part:
Compound 5 Form VI and Form VIII were placed at 25° C./60% RH in an open container over 1 week. Samples after the stress were characterized by XRPD and HPLC and inspected for color change.

Data set [4] can be described thus: Approximate solubility of Compound 5 polymorphs in EtOH:DCM (v:v=1:4). It is filed as physicochemical. Particulars: 25° C.; for Approximate solubility (visual appearance): EtOH:DCM (v:v = 1:4), listed as Form VI. The method, then: Four polymorphs (Form V, Form VI, Form VII and Form VIII) were weighed respectively and a suitable amount of solvent mixture EtOH:DCM (v:v=1:4) was added. The obtained samples were stirred at a rate of 400 rpm at 25° C.

Data set [5] in a line: Characterization of polymorphs and pseudo-polymorphs of Compound 5. It is filed as physicochemical.
Setting [6] is: THF/Heptane (v:v = 1:2), 25° C., 24 hours, target conc. 20 mg/mL.
Where [7] appears, read: THF/water (v:v = 1:2.5), 25° C., 24 hours, target conc. 20 mg/mL, listed as Form VI.

As to `Nc1cccc2c1CN(C1CCC(=O)NC1=O)C2=O` (centres unmarked) [lenalidomide], in data set [1], the “median duration of response [DOR]” value is on record as 16.6 months and the “overall response rate [ORR]” value is listed as 28%.
As to `O=C1CCC(N2C(=O)c3cccc4c(Cc5ccc(CN6CCOCC6)cc5)ccc2c34)C(=O)N1` (racemic) [Compound 5 Form VI], the “solubility” value in data set [2] (EtOH/DCM (v:v = 1:4), 25° C., 24 hours, target conc. 50-60 mg/mL, LOQ 0.8 μg/mL, listed as Form VI) is on record as 27 mg/mL (≈ 57.5 mM); in data set [2] (MeOH/DCM (v:v = 1:2), 25° C., 24 hours, target conc. 50-60 mg/mL, LOQ 0.8 μg/mL), 30 mg/mL (≈ 63.9 mM); in data set [2] (setting [6]), 0.1 mg/mL (≈ 0.213 mM); in data set [2] (THF/IPA (v:v = 1:2), 25° C., 24 hours, target conc. 20 mg/mL, listed as Form VI), 0.9 mg/mL (≈ 1.92 mM); in data set [2] (setting [7]) it was 4 mg/mL (≈ 8.52 mM); in data set [2] (in EtOH/DCM (v:v=1:4), about 25° C., 24 h, listed as Form VI), approximately 27 mg/mL (≈ 57.5 mM). Also, the solubility entry is recorded as “about 30 mg/mL” in data set [2] (in MeOH/DCM (v:v=1:2), about 25° C., 24 h); approximately 30 mg/mL (≈ 63.9 mM) in data set [2] (in MeOH:DCM (v:v=1:2) and EtOH:DCM (v:v=1:4), 25° C. for 24 h, listed as Form VI); approximately 1 mg/mL (≈ 2.13 mM) in data set [2] (in THF:IPA (v:v=1:2), THF:Heptane (v:v=1:2) and THF:Heptane (v:v=1:2.5), 25° C. for 24 h). Further, the “physical form after solubility test” value in data set [2] (MeOH:DCM (v:v=1:2) and EtOH:DCM (v:v=1:4), 25° C., 24 h) is on record as “converted to almost the amorphous form”; in data set [2] (THF:2-propanol (v:v=1:2), THF:Heptane (v:v=1:2) and THF:water (v:v=1:2.5), 25° C., 24 h), “no form change”. Further, the “XRPD of residual solids” value in data set [2] (setting [6]) is on record as “Form VI”; in data set [2] (THF/IPA (v:v = 1:2), 25° C., 24 hours, target conc. 20 mg/mL), “Form VI”; in data set [2] (setting [7]) it was “Form VI”. Further, the “bulk stability, chemical” value in data set [3] is “chemically stable”. The “bulk stability, physical (form)” value in data set [3] (listed as Form VI) is “good physical stability”. Also, in data set [3] (solid state, initial purity 93.1% (Form VI), 95.6% (Form VIII), listed as Form VI), the “Bulk (HPLC) Purity” value was found to be 93.1%. The “Bulk (XRPD)” value in data set [3] (solid state, listed as Form VI) is “Form VI”. The “Approximate solubility (visual appearance)” value in data set [4] (concentration 10 mg/mL) and in data set [4] (concentration 20 mg/mL) was “Suspension” throughout. For the same compound, the “approximate solubility compared with Form V and Form VII” value in data set [4] (EtOH:DCM (v:v=1:4), visual observation) is given as “higher solubility”. The “Evaporation of solvent from (by DSC)” value in data set [5] (DSC) was “about 154° C.;”. Also, the “Dehydration (by DSC)” value in data set [5] (DSC, listed as Form VI) was “about 6° C.;”. Besides, the “Enthalpy (by DSC)” value in data set [5] (DSC, listed as Form VI) amounted to 35 J/g. In addition, in data set [5] (DSC, listed as Form VI), the “Melting onset Tonset (by DSC)” value is “Tonset 226.4° C.,”. Also, the “Weight loss (by TGA)” value in data set [5] (at 215° C.) amounted to 9.7% at 215 °C. Moreover, the “Residual ion (by IC): Br−” value in data set [5] (listed as Form VI) is recorded as “Br^−: 0.22 equiv”. Moreover, the “Residual ion (by IC): Cl−” value in data set [5] (listed as Form VI) is listed as “Cl^−: 0.08 equiv.;”. Besides, the “Residual ion (by IC): Li+” value in data set [5] (listed as Form VI) is given as “Li^+: 0.17 equiv.;”. The “Residual ion (by IC): Na+” value in data set [5] (listed as Form VI) is listed as “Na+: 0.02 equiv”.

One may read the solubility as the concentration that dissolves in the medium under given conditions. Read a high solubility as a readily soluble substance.
